From publication PMC3516572, “MiniCD4 Microbicide Prevents HIV Infection of Human Mucosal Explants and Vaginal Transmission of SHIV162P3 in Cynomolgus Macaques” (PLoS Pathogens, 2012)

Tests used:
SHIV162P3 = conditions: cited from earlier work
Source text: The use of effective therapeutic drugs, such as tenofovir and more recently dapivirine tested in phase III trial, targeting post-entry events in the viral replication cycle (reverse transcription, integration and viral maturation) remains attractive, however the impact of their dual use in prevention and therapy on the potential induction of resistance evolution remains controversial. In contrast drugs that target the initial steps of viral attachment to CD4 and one of two co-receptors (CCR5 or CXCR4) triggering viral fusion with susceptible targets cells (entry inhibitors) are not widel ...

penile tissue explants = assay: MTT viability assay on penile tissue explants; type: cell-based, human; conditions: 24 h at 37°C, then MTT 2 h; M48U1 ten-fold dilutions, highest concentrations tested; nonoxynol-9 at 500 ng/mL; two independent experiments in triplicates
Source text: Cervical tissue was obtained from patients undergoing planned therapeutic hysterectomy at St. George's Hospital in London, United Kingdom. Surgically resected specimens of colorectal tissue were collected at St. George's Hospital, London, United Kingdom. Penile tissue (glans) was obtained from individuals undergoing gender reassignment surgery at Charing Cross Hospital. All tissues were collected after signed informed consent was received from all patients and under protocols approved by the Local Research Ethics Committee (National Research Ethic Service NHS). On arrival in the laboratory, resected tissue was cut into 2–3 mm^3 explants comprising both epithelial and stromal tissue or muscularis mucosae, depending on the tissue, as described previously, [22].
Penile tissues and PM-1 T cells were incubated in complete RPMI medium supplemented with ten-fold dilutions of M48U1 for 24 h at 37°C. Nonoxynol-9 microbicide (tested at 500 ng/mL) was employed as cytotoxic reference. […] For tissue, after releasing the formazan in ethanol overnight, cytotoxicity was determined by measuring the optical density of the purple formazan product at 570–690 nm using Synergy HT multi-detection microplate reader. For PM-1 cells, the absorption of the formazan product was determined after lysis of the cells.

PM-1 T cells = assay: MTT viability assay on PM-1 T cells; type: cell-based; conditions: 24 h at 37°C, then MTT 2 h; M48U1 ten-fold dilutions, highest concentrations tested; nonoxynol-9 at 500 ng/mL; two independent experiments in triplicates
Description: Penile tissues and PM-1 T cells were incubated in complete RPMI medium supplemented with ten-fold dilutions of M48U1 for 24 h at 37°C. Nonoxynol-9 microbicide (tested at 500 ng/mL) was employed as cytotoxic reference. The compounds were removed and the tissue explants and cells were incubated for 2 h in medium containing 500 µg/mL of 3-(4,5-dimethylthiazol-2-yl)-2,5-diphenyltetrazolium bromide (MTT). For tissue, after releasing the formazan in ethanol overnight, cytotoxicity was determined by measuring the optical density of the purple formazan product at 570–690 nm using Synergy HT multi-detection microplate reader. For PM-1 cells, the absorption of the formazan product was determined after lysis of the cells.

Structure (SMILES)	Protection of NHP from vaginal challenge with SHIV162P3 (SHIV162P3)	Cytotoxicity (MTT) in penile tissue (penile tissue explants)	Cytotoxicity (MTT) in PM-1 T-cell line (PM-1 T cells)
COc1ccnc2[nH]cc(C(=O)C(=O)N3CCN(C(=O)c4ccccc4)C[C@H]3C)c12 [BMS-378806]	could protect NHP	–	–
CCCCCCCCCc1ccc(OCCOCCOCCOCCOCCOCCOCCOCCOCCO)cc1 [nonoxynol-9]	–	significant toxicity	significant toxicity
